The text below walks through data of US4304784A, “Composition and method for inhibiting platelet aggregation” (Takeda Chemical Industries, Ltd., priority 1978, dated 1981).

The test system of data set [1] is ADP-induced platelet aggregation. In words: Inhibitory activity to the ADP-induced platelet aggregation measured by the platelet-counting-method, rat PRP. The data set is classed as cell-based. Particulars: platelet counting (Coulter Counter). Here is the method:
(b) Inhibitory activity to the ADP-induced platelet aggregation measured by the platelet-counting-method.
The test drug was dissolved in Na-isotonic 0.02 M Tris-HCl buffer (pH 7.4) containing 1% of dimethylformamide and to 1.5 ml of the test drug solution was added 0.5 ml of the rat-PRP. The mixture was incubated at 37° C. for one minute, followed by the addition of 1 ml of 5×10^-5 M-ADP-physiological saline, and further incubated for 45 seconds. To the solvent as mentioned above was added rat-PRP of the same volume as above. The mixture was incubated at 37° C. for one minute, which was used as the control preparation.
The rate of non-aggregation (inhibitory rate of aggregation) was assayed against the control by counting the number of the platelets in each sample as a single platelet by means of Coulter Counter and by determining the number of the platelets after the addition of ADP as non-aggregated platelets.

In data set [2] the test system is primary aggregation of platelets by ADP. In words: Inhibitory activity to the (primary) platelet aggregation induced by ADP, aggregation meter, rat PRP. Particulars: average of 5 cases. The data set is classed as cell-based. As for the experimental part: (a) Inhibitory activity to the platelet aggregation induced by ADP (adenosine diphosphate)
(§1) With a siliconized injection syringe wetted with heparin, a blood sample was taken from the descending artery of a rat and centrifuged at 4° C. and 1,000 r.p.m. for 10 minutes to obtain a platelet-rich plasma (PRP). The test drug solutions were prepared as follows. The test drug was dissolved in 0.02 M Tris-HCl buffer containing 1% of dimethylformamide and isotonicated with sodium (pH 7.4). To 0.4 ml of the above PRP was added 3.0 ml of the test drug solution, followed by the addition of 0.1 ml of 10^-4 M ADP. The resultant aggregation of platelets was measured with an aggregation meter [Nippon Bunko Medical K.K.]. The activity of the test drug was first assayed by determining the primary aggregation inhibitory effect in terms of inhibition rate (%) in relation to the maximum light transmittance of control PRP which is altered by ADP.
The inhibition rates shown are each an average of 5 cases.

The subject of data set [3] is platelet aggregation by ADP. In words: Platelet aggregation inhibitory activity after oral administration to rats (blood sampled one hour after dosing). Particulars: rat. The data set is classed as in vivo. As for the experimental part: as §1
(2) The platelet aggregation inhibitory activity of Compound (I) (oral administration)
In one hour after oral administration of the test drug to rats, a blood sample was taken from each of the tested rats and the inhibition rate was assayed in accordance with the procedure as mentioned above (1)-a).

Data set [4] has as its system thrombocyte (platelet) aggregation. In words: Inhibition activity of platelet aggregation in mammalian blood (general statement).
Data set [5] relates to mice. Particulars: mouse, in vivo. The text has this:
(3) The toxicity of compound (I)

Where two headings read alike, the source gives them in different places.

On to `CCOC(=O)COc1ccc2c(C)c(CCN(CC)CC)c(=O)oc2c1` [Carbochromen], for which the “Rate of inhibition of the aggregation” value in data set [1] (0.5 × 10^-4 mol. conc.) amounted to 5.12 ± 2.20%; in data set [1] (1 × 10^-4 mol. conc.), 12.75 ± 2.26%; in data set [1] (5 × 10^-4 mol. conc.), 15.95 ± 1.87%.

As to `CC(C(=O)O)c1cccc(C(=O)c2ccccc2)c1` (centres unmarked) [Ketoprofen], the “Rate of inhibition of the primary aggregation of platelets by ADP” value (“Rate of inhibition … of platelets by ADP” below) in data set [2] (1.0 × 10^-4 mol. conc.) came to 19.6%; in data set [2] (2.5 × 10^-4 mol. conc.) it was 36.0%; in data set [2] (5.0 × 10^-4 mol. conc.) it was 71.5%. For the same compound, the “Rate of inhibition of the platelet aggregation by ADP” value in data set [3] (10 mg/kg body weight) was determined as 7.2%; in data set [3] (25 mg/kg body weight), 13.5%; in data set [3] (50 mg/kg body weight) it was 18.6%.

On to `O=C1c2ccccc2SC12CC2` [Compound (I), 3-oxo-2,3-dihydro[1]benzothiophene-2-spirocyclopropane], for which the entries for the “Rate of inhibition of the aggregation” value in data set [1] (0.5 × 10^-4 mol. conc.), in data set [1] (1 × 10^-4 mol. conc.) and in data set [1] (5 × 10^-4 mol. conc.) were 13.02 ± 2.20%, 16.09 ± 3.14% and 80.98 ± 2.92%, respectively. Moreover, the “inhibition activity of thrombocyte (platelet) aggregation” value in data set [4] was “strong inhibition activity”. For the same compound, the toxic reactions entry in data set [5] (ip, 100 mg/kg) is on record as “nor was any toxic reaction noted”; in data set [5] (po, 300 mg/kg), “No toxic reactions were elicited”. Moreover, the “Rate of inhibition … of platelets by ADP” value in data set [2] (0.5 × 10^-4 mol. conc.) came out at 10.9%; in data set [2] (0.75 × 10^-4 mol. conc.), 52.4%; in data set [2] (1.0 × 10^-4 mol. conc.), 82.3%; in data set [2] (2.5 × 10^-4 mol. conc.), 96.9%; in data set [2] (5.0 × 10^-4 mol. conc.) it was 97.7%. Besides, the “Rate of inhibition of the platelet aggregation by ADP” value in data set [3] (5 mg/kg body weight) is listed as -3.6%; in data set [3] (10 mg/kg body weight), 12.7%; in data set [3] (25 mg/kg body weight) it was 20.0%; in data set [3] (50 mg/kg body weight), 21.9%.

For `CC(=O)Oc1ccccc1C(=O)O` [Aspirin], the “Rate of inhibition of the aggregation” value in data set [1] (0.5 × 10^-4 mol. conc.) is on record as 6.51 ± 1.86%; in data set [1] (1 × 10^-4 mol. conc.), -15.81 ± 5.65%; in data set [1] (5 × 10^-4 mol. conc.), -7.11 ± 0.98%. Moreover, the “Rate of inhibition … of platelets by ADP” value worked out at 10.6% in data set [2] (1.0 × 10^-4 mol. conc.), 28.8% in data set [2] (2.5 × 10^-4 mol. conc.) and 60.4% in data set [2] (5.0 × 10^-4 mol. conc.). Further, the figures for the “Rate of inhibition of the platelet aggregation by ADP” value in data set [3] (50 mg/kg body weight) and in data set [3] (100 mg/kg body weight) were 0% and 4.3%, respectively.

Take `COc1ccc2c(c1)c(CC(=O)O)c(C)n2C(=O)c1ccc(Cl)cc1` [Indomethacin]: the entries for the “Rate of inhibition of the aggregation” value in data set [1] (0.5 × 10^-4 mol. conc.), in data set [1] (1 × 10^-4 mol. conc.) and in data set [1] (5 × 10^-4 mol. conc.) were 8.18 ± 2.21%, 0.85 ± 0.20% and 64.66 ± 1.76%, respectively. Besides, the “Rate of inhibition … of platelets by ADP” value was 8.0% in data set [2] (1.0 × 10^-4 mol. conc.), 31.5% in data set [2] (2.5 × 10^-4 mol. conc.) and 71.4% in data set [2] (5.0 × 10^-4 mol. conc.). The “Rate of inhibition of the platelet aggregation by ADP” value came out at 12.5% in data set [3] (5 mg/kg body weight), 12.4% in data set [3] (10 mg/kg body weight) and 11.2% in data set [3] (25 mg/kg body weight).
